The OligoGym collection
HELM strings list units from the 5' end as sugar, base in round brackets, then linkage (d deoxyribose, r ribose, m 2'-O-methyl, p phosphodiester). Strings are as the collection lists them; they lack the last nucleoside at the 3' end of the tested compound. [moe] = 2'-O-(2-methoxyethyl) (MOE); [sp] = phosphorothioate linkage; [m5C] = 5-methylcytosine

Target: UBE3A-ATS
Experiment: mouse, dose not given
Details: ASO

Substance: RNA1{[moe](G)[sp].[moe](G)p.[moe]([m5C])p.[moe](A)p.[moe](A)p.d(T)[sp].d(G)[sp].d(G)[sp].d(A)[sp].d([m5C])[sp].d(T)[sp].d(T)[sp].d(A)[sp].d(G)[sp].d(T)[sp].[moe](A)p.[moe]([m5C])p.[moe](A)[sp].[moe]([m5C])}$$$$ (last 3' nucleoside missing)
- 3 h FOB score: 2.3 score 0-7

Substance: RNA1{[moe](G)[sp].[moe](G)p.[moe]([m5C])p.[moe](A)p.[moe](G)p.d([m5C])[sp].d(T)[sp].d([m5C])[sp].d([m5C])[sp].d(T)[sp].d(G)[sp].d(A)[sp].d([m5C])[sp].d(A)[sp].d(A)[sp].[moe](A)p.[moe](T)p.[moe](T)[sp].[moe](A)}$$$$ (last 3' nucleoside missing)
- 3 h FOB score: 4 score 0-7

Substance: RNA1{[moe](G)[sp].[moe](G)p.[moe]([m5C])p.[moe](T)p.[moe](T)p.d(T)[sp].d(A)[sp].d(T)[sp].d(A)[sp].d([m5C])[sp].d(T)[sp].d(T)[sp].d(T)[sp].d(A)[sp].d([m5C])[sp].[moe]([m5C])p.[moe]([m5C])p.[moe](A)[sp].[moe](A)}$$$$ (last 3' nucleoside missing)
- 3 h FOB score: 1 score 0-7

Substance: RNA1{[moe](G)[sp].[moe](G)p.[moe]([m5C])p.[moe]([m5C])p.[moe](T)p.d(G)[sp].d(A)[sp].d([m5C])[sp].d(T)[sp].d(A)[sp].d(G)[sp].d(G)[sp].d([m5C])[sp].d(A)[sp].d(T)[sp].[moe](T)p.[moe](G)p.[moe](A)[sp].[moe](A)}$$$$ (last 3' nucleoside missing)
- 3 h FOB score: 3 score 0-7

Substance: RNA1{[moe](G)[sp].[moe](T)p.[moe](A)p.[moe](A)p.[moe](G)p.d(A)[sp].d(G)[sp].d(T)[sp].d(T)[sp].d(A)[sp].d(G)[sp].d([m5C])[sp].d(T)[sp].d(A)[sp].d(T)[sp].[moe](T)p.[moe]([m5C])p.[moe]([m5C])[sp].[moe]([m5C])}$$$$ (last 3' nucleoside missing)
- 3 h FOB score: 4 score 0-7

Substance: RNA1{[moe](G)[sp].[moe](T)p.[moe](A)p.[moe](A)p.[moe](G)p.d(T)[sp].d(A)[sp].d(T)[sp].d(A)[sp].d(G)[sp].d(A)[sp].d(T)[sp].d(G)[sp].d([m5C])[sp].d([m5C])[sp].[moe](T)p.[moe]([m5C])p.[moe](T)[sp].[moe]([m5C])}$$$$ (last 3' nucleoside missing)
- 3 h FOB score: 3.8 score 0-7

Substance: RNA1{[moe](G)[sp].[moe](T)p.[moe](A)p.[moe](A)p.[moe](T)p.d(G)[sp].d(A)[sp].d(T)[sp].d(T)[sp].d(T)[sp].d(G)[sp].d([m5C])[sp].d([m5C])[sp].d([m5C])[sp].d(T)[sp].[moe]([m5C])p.[moe]([m5C])p.[moe](T)[sp].[moe](A)}$$$$ (last 3' nucleoside missing)
- 3 h FOB score: 6 score 0-7

Substance: RNA1{[moe](G)[sp].[moe](T)p.[moe](A)p.[moe](G)p.[moe](A)p.d(T)[sp].d(A)[sp].d(A)[sp].d([m5C])[sp].d(T)[sp].d(T)[sp].d(T)[sp].d(A)[sp].d([m5C])[sp].d([m5C])[sp].[moe](T)p.[moe](T)p.[moe](G)[sp].[moe](A)}$$$$ (last 3' nucleoside missing)
- 3 h FOB score: 0 score 0-7

Substance: RNA1{[moe](G)[sp].[moe](T)p.[moe](A)p.[moe](G)p.[moe](G)p.d(A)[sp].d(G)[sp].d(A)[sp].d(T)[sp].d(A)[sp].d(G)[sp].d(G)[sp].d([m5C])[sp].d(A)[sp].d(G)[sp].[moe](T)p.[moe](G)p.[moe]([m5C])[sp].[moe](A)}$$$$ (last 3' nucleoside missing)
- 3 h FOB score: 5 score 0-7

Substance: RNA1{[moe](G)[sp].[moe](T)p.[moe](A)p.[moe](G)p.[moe]([m5C])p.d(T)[sp].d(A)[sp].d(T)[sp].d(A)[sp].d(G)[sp].d(G)[sp].d(T)[sp].d(G)[sp].d(T)[sp].d([m5C])[sp].[moe](A)p.[moe]([m5C])p.[moe](A)[sp].[moe](T)}$$$$ (last 3' nucleoside missing)
- 3 h FOB score: 6.2 score 0-7

Substance: RNA1{[moe](G)[sp].[moe](T)p.[moe](A)p.[moe](T)p.[moe](A)p.d(T)[sp].d(A)[sp].d([m5C])[sp].d(T)[sp].d([m5C])[sp].d([m5C])[sp].d(A)[sp].d(G)[sp].d(G)[sp].d(T)[sp].[moe](T)p.[moe](G)p.[moe](T)[sp].[moe](G)}$$$$ (last 3' nucleoside missing)
- 3 h FOB score: 5.2 score 0-7

Substance: RNA1{[moe](G)[sp].[moe](T)p.[moe](A)p.[moe](T)p.[moe](A)p.d(T)[sp].d(T)[sp].d(A)[sp].d(G)[sp].d(T)[sp].d([m5C])[sp].d(T)[sp].d(A)[sp].d(A)[sp].d(G)[sp].[moe](G)p.[moe]([m5C])p.[moe](A)[sp].[moe](G)}$$$$ (last 3' nucleoside missing)
- 3 h FOB score: 3.7 score 0-7

Substance: RNA1{[moe](G)[sp].[moe](T)p.[moe](A)p.[moe](T)p.[moe](A)p.d(T)[sp].d(T)[sp].d(G)[sp].d(T)[sp].d(A)[sp].d(G)[sp].d([m5C])[sp].d(T)[sp].d(T)[sp].d(T)[sp].[moe](T)p.[moe]([m5C])p.[moe](T)[sp].[moe](A)}$$$$ (last 3' nucleoside missing)
- 3 h FOB score: 6.2 score 0-7

Substance: RNA1{[moe](G)[sp].[moe](T)p.[moe](A)p.[moe](T)p.[moe](G)p.d(G)[sp].d(T)[sp].d(A)[sp].d(T)[sp].d([m5C])[sp].d(T)[sp].d(T)[sp].d(G)[sp].d([m5C])[sp].d(A)[sp].[moe](G)p.[moe](T)p.[moe](A)[sp].[moe](G)}$$$$ (last 3' nucleoside missing)
- 3 h FOB score: 5.2 score 0-7

Substance: RNA1{[moe](G)[sp].[moe](T)p.[moe](A)p.[moe](T)p.[moe](T)p.d(G)[sp].d(A)[sp].d([m5C])[sp].d(A)[sp].d([m5C])[sp].d([m5C])[sp].d(T)[sp].d([m5C])[sp].d([m5C])[sp].d(A)[sp].[moe](A)p.[moe]([m5C])p.[moe](T)[sp].[moe](G)}$$$$ (last 3' nucleoside missing)
- 3 h FOB score: 2 score 0-7

Substance: RNA1{[moe](G)[sp].[moe](T)p.[moe](A)p.[moe](T)p.[moe]([m5C])p.d(A)[sp].d(G)[sp].d(G)[sp].d([m5C])[sp].d(A)[sp].d(A)[sp].d([m5C])[sp].d(A)[sp].d(G)[sp].d(A)[sp].[moe](A)p.[moe](T)p.[moe]([m5C])[sp].[moe](T)}$$$$ (last 3' nucleoside missing)
- 3 h FOB score: 4.3 score 0-7

Substance: RNA1{[moe](G)[sp].[moe](T)p.[moe](A)p.[moe]([m5C])p.[moe](A)p.d(A)[sp].d(T)[sp].d(G)[sp].d([m5C])[sp].d(A)[sp].d(T)[sp].d(G)[sp].d(T)[sp].d(G)[sp].d(G)[sp].[moe](G)p.[moe]([m5C])p.[moe]([m5C])[sp].[moe](T)}$$$$ (last 3' nucleoside missing)
- 3 h FOB score: 4 score 0-7

Substance: RNA1{[moe](G)[sp].[moe](T)p.[moe](A)p.[moe]([m5C])p.[moe](A)p.d([m5C])[sp].d(T)[sp].d(A)[sp].d(T)[sp].d(T)[sp].d(G)[sp].d(T)[sp].d(T)[sp].d(T)[sp].d(T)[sp].[moe](G)p.[moe](A)p.[moe](T)[sp].[moe](A)}$$$$ (last 3' nucleoside missing)
- 3 h FOB score: 2.5 score 0-7

Substance: RNA1{[moe](G)[sp].[moe](T)p.[moe](A)p.[moe]([m5C])p.[moe](T)p.d([m5C])[sp].d(A)[sp].d(T)[sp].d([m5C])[sp].d(A)[sp].d(T)[sp].d(G)[sp].d(A)[sp].d(T)[sp].d([m5C])[sp].[moe](T)p.[moe](T)p.[moe](G)[sp].[moe](G)}$$$$ (last 3' nucleoside missing)
- 3 h FOB score: 2 score 0-7

Substance: RNA1{[moe](G)[sp].[moe](T)p.[moe](G)p.[moe](A)[sp].d(G)[sp].d([m5C])[sp].d(T)[sp].d(A)[sp].d(T)[sp].d([m5C])[sp].d(T)[sp].d(G)[sp].[moe](T)p.[moe](A)p.[moe]([m5C])p.[moe](A)[sp].[moe](A)}$$$$ (last 3' nucleoside missing)
- 3 h FOB score: 1.7 score 0-7

Substance: RNA1{[moe](G)[sp].[moe](T)p.[moe](G)p.[moe](A)p.[moe](G)[sp].d([m5C])[sp].d(T)[sp].d(A)[sp].d(T)[sp].d([m5C])[sp].d(T)[sp].d(G)[sp].d(T)[sp].[moe](A)p.[moe]([m5C])p.[moe](A)[sp].[moe](A)}$$$$ (last 3' nucleoside missing)
- 3 h FOB score: 1 score 0-7

Substance: RNA1{[moe](G)[sp].[moe](T)p.[moe](G)p.[moe](A)p.[moe](G)p.[moe]([m5C])[sp].d(T)[sp].d(A)[sp].d(T)[sp].d([m5C])[sp].d(T)[sp].d(G)[sp].d(T)[sp].d(A)[sp].[moe]([m5C])p.[moe](A)[sp].[moe](A)}$$$$ (last 3' nucleoside missing)
- 3 h FOB score: 4.7 score 0-7

Substance: RNA1{[moe](G)[sp].[moe](T)p.[moe](G)p.[moe](A)p.[moe](G)p.[moe]([m5C])p.d(T)[sp].d(A)[sp].d(T)[sp].d([m5C])[sp].d(T)[sp].d(G)[sp].d(T)[sp].d(A)[sp].d([m5C])[sp].d(A)[sp].[moe](A)p.[moe](A)[sp].[moe](A)}$$$$ (last 3' nucleoside missing)
- 3 h FOB score: 1.3 score 0-7

Substance: RNA1{[moe](G)[sp].[moe](T)p.[moe](G)p.[moe](A)p.[moe](G)p.d([m5C])[sp].d(T)[sp].d(A)[sp].d(T)[sp].d([m5C])[sp].d(T)[sp].d(G)[sp].d(T)[sp].d(A)[sp].d([m5C])[sp].[moe](A)p.[moe](A)p.[moe](A)[sp].[moe](A)}$$$$ (last 3' nucleoside missing)
- 3 h FOB score: 3.2 score 0-7

Substance: RNA1{[moe](G)[sp].[moe](T)p.[moe](G)p.[moe](A)p.[moe](G)p.d([m5C])[sp].d(T)[sp].d(T)[sp].d(T)[sp].d(A)[sp].d([m5C])[sp].d(T)[sp].d([m5C])[sp].d(T)[sp].d(G)[sp].[moe]([m5C])p.[moe](A)p.[moe](A)[sp].[moe](T)}$$$$ (last 3' nucleoside missing)
- 3 h FOB score: 1 score 0-7

Substance: RNA1{[moe](G)[sp].[moe](T)p.[moe](G)p.[moe](A)p.d(G)[sp].d([m5C])[sp].d(T)[sp].d(A)[sp].d(T)[sp].d([m5C])[sp].d(T)[sp].d(G)[sp].d(T)[sp].d(A)[sp].[moe]([m5C])p.[moe](A)p.[moe](A)p.[moe](A)[sp].[moe](A)}$$$$ (last 3' nucleoside missing)
- 3 h FOB score: 4 score 0-7

Substance: RNA1{[moe](G)[sp].[moe](T)p.[moe](G)p.[moe](G)p.[moe](T)p.d(T)[sp].d(G)[sp].d([m5C])[sp].d([m5C])[sp].d(T)[sp].d(T)[sp].d(A)[sp].d(G)[sp].d(T)[sp].d(A)[sp].[moe](T)p.[moe](T)p.[moe](A)[sp].[moe]([m5C])}$$$$ (last 3' nucleoside missing)
- 3 h FOB score: 2.2 score 0-7
